Assay results as given in patent US6187800A, “Method for the prevention and treatment of mastitis” (Novartis Animal Health U.S., Inc., priority 1997, dated 2001).

Experiments:
[1] = Hydrophobicity and water solubility
[2] = test system: pathogens causing bovine mastitis; assay: Activity against mastitis pathogens (general statement); format: cell-based

C/C=C(\NC(=O)c1csc(-c2csc(-c3ccc4c(n3)-c3csc(n3)[C@H]([C@@H](C)O)NC(=O)c3csc(n3)[C@H](C(C)C)NC(=O)c3csc(n3)/C(=C/C)NC(=O)[C@H]([C@@H](C)O)NC(=O)c3csc-4n3)n2)n1)C(=O)NCC(C)=O [P2, micrococcin P2]
hydrophobicity [1]: highly hydrophobic
solubility in water [1]: poorly soluble in water
activity against pathogens causing bovine mastitis [2]: highly active against pathogens causing bovine mastitis
